This test can be described thus: Inhibition of HIV integrase-mediated strand transfer activity. Set-up: species or system Human immunodeficiency virus.
The term IC50 denotes the concentration that gives 50% inhibition. The low end stands for greater potency, the high end for weaker potency. `O=C(O)/C(O)=C/C(=O)N1CCc2cc(F)ccc21` registered a half-inhibitory concentration (IC50) of 230 nM.
`O=C(O)/C(O)=C/c1nc2ccc(Cl)cc2o1`: the IC50 is above 100000 nM.
Under `O=C(/C=C(\O)C(=O)O)Nc1cccc(Cl)c1` stands 700 nM; under `O=C(/C=C(\O)C(=O)O)Cc1ccccc1`, above 200000 nM.
The molecule `O=C(/C=C(\O)C(=O)O)Nc1ccc(F)c(F)c1` returned an IC50 of 2400 nM.
As to `O=C(/C=C(\O)C(=O)O)Nc1ccc(Cl)cc1`, it took 5600 nM to reach half-maximal inhibition (IC50).
Molecule `O=C(O)/C(O)=C/C(=O)N1CCc2cc(Cl)c(Cl)cc21` registered an IC50 of 20 nM.
`O=C(O)/C(O)=C/C(=O)N1CCc2ccccc21` came in with an IC50 of 200 nM.
The molecule `O=C(/C=C(\O)C(=O)O)Nc1ccc(Cl)c(Cl)c1` returned an IC50 of 160 nM. This IC50 and that of the molecule before are within 1.5-fold of each other.
Regarding `O=C(/C=C(\O)C(=O)O)Nc1ccc(F)cc1`, the IC50 was determined as 13400 nM.
On to `CN(C(=O)/C=C(\O)C(=O)O)c1cccc(Cl)c1`, for which the concentration for half-maximal inhibition (IC50) is above 125000 nM.

For the origin of these results see ChEMBL document CHEMBL1139734, “Exploration of the diketoacid integrase inhibitor chemotype leading to the discovery of the anilide-ketoacids chemotype” (Bioorg Med Chem Lett, 2006).
